From ChEMBL document CHEMBL4823324, “Discovery of BMS-986318, a Potent Nonbile Acid FXR Agonist for the Treatment of Nonalcoholic Steatohepatitis” (ACS Med Chem Lett, 2021)
pEC50, pIC50: −log10 of the molar value.

Key:
[1] = Oral bioavailability in C57B6 mouse at 2 mg/kg administered as suspension; format: ADME, organism-based; conditions: in vivo
[2] = AUC in C57B6 mouse at 1 mg/kg, iv; format: ADME, organism-based; set-up: dose 1 mg/kg; conditions: in vivo
[3] = Volume of distribution at steady state in C57B6 mouse at 1 mg/kg, iv; format: ADME, organism-based; conditions: in vivo, read-out: Vdss
[4] = Plasma concentration in mouse at 3 mg/kg, po measured after 6 hrs; format: ADME, organism-based
[5] = Half life in C57B6 mouse at 2 mg/kg, po administered as solution; format: ADME, organism-based; conditions: in vivo
[6] = Plasma protein binding in C57B6 mouse assessed as unbound fraction at 1 mg/kg, iv; format: ADME, organism-based; conditions: in vivo
[7] = Metabolic stability in human liver microsomes assessed as half life; format: ADME, Microsome
[8] = Cmax in C57B6 mouse at 1 mg/kg, iv; format: ADME, organism-based; set-up: route intravenous, dose 1 mg/kg; conditions: in vivo
[9] = biological target: T1, Nuclear receptor ROR-alpha (Homo sapiens, UniProt P35398); test: Antagonist activity at human RORalpha (272 to 557 residues) co-expressed with Gal4-luciferase reporter in human Jurkat cells incubated for 18 hrs by Steady-Glo luciferase reporter based luminescence analysis; format: cell-based
T1 sequence (P35398 whole entry): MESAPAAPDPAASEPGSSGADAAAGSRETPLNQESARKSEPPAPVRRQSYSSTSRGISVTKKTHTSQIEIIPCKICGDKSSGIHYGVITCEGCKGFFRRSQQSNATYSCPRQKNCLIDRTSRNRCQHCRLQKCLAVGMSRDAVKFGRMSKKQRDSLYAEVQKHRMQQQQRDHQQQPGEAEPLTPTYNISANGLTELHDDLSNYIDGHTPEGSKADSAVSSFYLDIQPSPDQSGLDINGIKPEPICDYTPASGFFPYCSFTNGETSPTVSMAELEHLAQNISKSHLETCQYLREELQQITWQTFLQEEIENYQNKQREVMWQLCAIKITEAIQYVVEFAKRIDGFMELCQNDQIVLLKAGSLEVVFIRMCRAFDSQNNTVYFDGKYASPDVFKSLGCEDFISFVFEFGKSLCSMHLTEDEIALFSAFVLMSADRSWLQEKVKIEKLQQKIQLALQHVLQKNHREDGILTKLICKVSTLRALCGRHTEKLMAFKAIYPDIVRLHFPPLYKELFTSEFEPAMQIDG

[10] = Cmax in C57B6 mouse at 2 mg/kg, po administered as suspension; format: ADME, organism-based; set-up: route oral, dose 2 mg/kg; conditions: in vivo
[11] = biological target: T2, Glucocorticoid receptor (Homo sapiens, UniProt P04150); test: Activation of glucocorticoid receptor (unknown origin) by fluorescence polarization based competition assay
T2 sequence (P04150 whole entry): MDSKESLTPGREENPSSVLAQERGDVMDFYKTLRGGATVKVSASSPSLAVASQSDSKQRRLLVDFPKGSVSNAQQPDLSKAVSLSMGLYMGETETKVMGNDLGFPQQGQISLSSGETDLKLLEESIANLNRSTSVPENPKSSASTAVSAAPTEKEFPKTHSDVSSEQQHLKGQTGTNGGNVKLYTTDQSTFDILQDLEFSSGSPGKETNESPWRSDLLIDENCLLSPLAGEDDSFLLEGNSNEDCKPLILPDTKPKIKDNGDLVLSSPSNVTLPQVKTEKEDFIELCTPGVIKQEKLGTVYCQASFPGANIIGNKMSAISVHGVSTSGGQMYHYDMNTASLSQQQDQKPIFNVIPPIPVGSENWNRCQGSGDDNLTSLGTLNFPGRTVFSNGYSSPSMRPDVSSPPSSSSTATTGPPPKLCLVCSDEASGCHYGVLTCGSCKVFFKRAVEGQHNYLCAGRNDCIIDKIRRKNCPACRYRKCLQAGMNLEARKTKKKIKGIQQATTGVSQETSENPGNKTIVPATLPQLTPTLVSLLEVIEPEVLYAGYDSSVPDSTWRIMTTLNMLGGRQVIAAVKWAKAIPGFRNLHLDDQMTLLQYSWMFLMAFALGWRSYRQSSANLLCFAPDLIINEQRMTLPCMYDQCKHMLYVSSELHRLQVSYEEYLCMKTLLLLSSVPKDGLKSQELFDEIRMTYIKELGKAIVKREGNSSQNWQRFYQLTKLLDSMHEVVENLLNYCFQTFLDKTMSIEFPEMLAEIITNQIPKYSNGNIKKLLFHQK

[12] = biological target: T3, Peroxisome proliferator-activated receptor gamma (Homo sapiens, UniProt P37231); test: Activation of PPARgamma LBD (unknown origin) co-expressed with Gal4UAS-luciferase reporter in HEK293 cells incubated for 24 hrs by Steady-Glo luciferase reporter gene based luminescence analysis; format: cell-based
T3 sequence (P37231 whole entry): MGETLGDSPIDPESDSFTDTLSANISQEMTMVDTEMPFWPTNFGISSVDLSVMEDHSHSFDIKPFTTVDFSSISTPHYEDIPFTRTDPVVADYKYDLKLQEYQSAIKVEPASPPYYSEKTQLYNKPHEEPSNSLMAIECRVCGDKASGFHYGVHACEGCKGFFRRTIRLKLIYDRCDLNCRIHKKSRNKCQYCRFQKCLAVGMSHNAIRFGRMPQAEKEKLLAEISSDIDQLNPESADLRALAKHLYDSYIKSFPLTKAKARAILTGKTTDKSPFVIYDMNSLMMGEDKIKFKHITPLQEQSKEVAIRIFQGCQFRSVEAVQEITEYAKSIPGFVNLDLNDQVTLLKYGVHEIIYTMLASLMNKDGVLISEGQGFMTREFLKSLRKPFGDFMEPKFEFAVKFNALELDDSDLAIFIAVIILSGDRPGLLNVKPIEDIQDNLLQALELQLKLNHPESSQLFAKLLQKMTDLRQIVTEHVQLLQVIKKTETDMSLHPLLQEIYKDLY

[13] = biological target: T4, Nuclear receptor ROR-gamma (Homo sapiens, UniProt P51449); test: Antagonist activity at human RORgammaT co-expressed with Gal4-luciferase reporter in human Jurkat cells incubated for 18 hrs by Steady-Glo luciferase reporter based luminescence analysis; format: cell-based
T4 sequence (P51449 whole entry): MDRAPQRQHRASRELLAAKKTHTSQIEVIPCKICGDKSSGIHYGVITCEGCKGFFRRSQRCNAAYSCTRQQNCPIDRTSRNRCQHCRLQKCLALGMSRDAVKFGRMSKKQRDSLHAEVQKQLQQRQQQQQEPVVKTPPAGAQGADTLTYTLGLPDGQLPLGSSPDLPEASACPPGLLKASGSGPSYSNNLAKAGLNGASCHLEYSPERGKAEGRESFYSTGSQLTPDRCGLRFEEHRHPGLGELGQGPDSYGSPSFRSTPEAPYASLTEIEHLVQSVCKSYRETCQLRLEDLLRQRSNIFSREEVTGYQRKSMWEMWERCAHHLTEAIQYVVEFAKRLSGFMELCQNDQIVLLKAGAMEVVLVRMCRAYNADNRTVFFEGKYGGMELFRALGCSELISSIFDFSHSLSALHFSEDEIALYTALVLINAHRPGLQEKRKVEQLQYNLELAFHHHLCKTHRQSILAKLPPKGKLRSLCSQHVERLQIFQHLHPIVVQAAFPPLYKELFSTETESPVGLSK

[14] = Cmax in C57B6 mouse at 2 mg/kg, po administered as solution; format: ADME, organism-based; set-up: route oral, dose 2 mg/kg; conditions: in vivo

bioavailability [1]: 26%
AUC [2]: 9.32 µM·h
Vd [3]: 0.56 L/kg
concentration at 6 h [4]: 37 nM
half-life [5]: 2.3 h
Fu [6]: < 0.01%
half-life [7]: > 2 h
Cmax [8]: 1490 nM
pIC50 [9]: < 4.40
Cmax [10]: 1030 nM
pEC50 [11]: < 4.40
pEC50 [12]: < 4.40
pIC50 [13]: < 4.40
Cmax [14]: 1220 nM
SMILES: O=C(O)c1cc(C(F)(F)F)c2cc(N3CCC4(C=C(c5c(-c6c(Cl)cncc6Cl)noc5C5CC5)C4)CC3)ccc2n1
